Reference: patent US20240376097A1, “BCL-2 Inhibitor” (BeiGene Ltd., priority 2020, published 2024)

Key:
[1] = test system: BCL-2 G101V knock-in cell line H96 (derive from RS4;11); assay: Bcl 2-G101V Knock-In RS4;11 Cell Proliferation Assay; format: cell-based; details: Homo sapiens, RS4-11, 48 h, RS4;11 Bcl-2 G101V knock-in clone H96, 48 hrs, CellTiter-GLO, read-out: Cellular proliferation assay (IC50, nM) RS4
Summary of the method: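 CellTiter-Glo luminescence after 48 h, 37 °C compound treatment (10 concentrations, maximum 1 μM or 10 μM) gave mean IC50 values. Cells were 50,000 per well of H96, a BCL2-G101V knock-in single clone derived from RS4;11 by Cas9 editing.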

[2] = test system: recombinant human Bcl-2-G101V protein; assay: Bcl-2-G101V TR-FRET Assay; format: binding; details: for Ratio of Bcl-2 G101V/WT: ratio of biochemical IC50 Bcl-2 G101V / Bcl-2 WT
Summary of the method: (§1)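 Percent inhibition of the Bcl-2-G101V–ligand interaction was computed from the 490 nm to 520 nm emission ratio after 337 nm excitation, over increasing compound concentrations; a four-parameter logistic fit gave IC50.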

[3] = target: recombinant human Bcl-2-G101V protein (Homo sapiens (Human), UniProt P10415, G101V); assay: Bcl-2-G101V TR-FRET Assay; format: binding; details: Bcl-2 G101V mutant, TR-FRET; read-out: Biochemical assay (IC50, nM) Bcl-2 G101V
Summary of the method: as §1

[4] = Metabolic Stability Study, liver microsome incubation (mouse); format: in vitro ADME; details: mouse liver microsomes 0.5 mg/mL, 1 μM compound, NADPH; for half-life at 1 μM: NA^# = very stable, beyond the detection limits, read-out: T1/2 (min) mouse; for microsomal CLint at 1 μM: read-out: CLint (μL × min^−1 × mg^−1) mouse
Summary of the method: (§2)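 Test compounds (1 μM) incubated at 37° C with 0.5 mg/mL liver microsomes plus NADPH regenerating system; samples quenched at 0, 30 and 60 min. Parent loss measured by LC-MS/MS, giving CLint and T1/2, with CLint normalised to microsomal protein concentration.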

[5] = Metabolic Stability Study, liver microsome incubation (human); format: in vitro ADME; details: human liver microsomes 0.5 mg/mL, 1 μM compound, NADPH; for microsomal CLint at 1 μM: read-out: CLint (μL × min^−1 × mg^−1) Human
Summary of the method: as §2

| SMILES | IC50 [1] [nM] | ratio of IC50 of Bcl-2 G101V/Bcl-2 wt, compared with Example F132b in WO2019210828 and ABT-199 (venetoclax) ([2]; comparison in words) | Ratio of Bcl-2 G101V/WT [2] | IC50 [3] [nM] | half-life at 1 μM [4] [min] | microsomal CLint at 1 μM [4] [µL/min/mg] | half-life at 1 μM ([5]; NA^# = very stable, beyond the detection limits, read-out: T1/2 (min) Human) [min] | microsomal CLint at 1 μM [5] [µL/min/mg] |
| --- | --- | --- | --- | --- | --- | --- | --- | --- |
| COc1cc(CN2CCN(C3CC4(C3)CN(c3ccc(C(=O)NS(=O)(=O)c5ccc(NC[C@H]6CC[C@](C)(O)CC6)c([N+](=O)[O-])c5)c(Oc5cnc6[nH]cc(F)c6c5)c3)C4)[C@H](c3ccccc3C(C)C)C2)cc2cc(C)oc12 [Example 338, 2-((3-fluoro-1H-pyrrolo[2,3-b]pyridin-5-yl)oxy)-N-((4-((((1r,4r)-4-hydroxy-4-methylcyclohexyl)methyl)amino)-3-nitrophenyl)sulfonyl)-4-(6-((R)-2-(2-isopropylphenyl)-4-((7-methoxy-2-methylbenzofuran-5-yl)methyl)piperazin-1-yl)-2-azaspiro[3.3]heptan-2-yl)benzamide] | 0.15 | much lower | 2.3 | 1.4 | 538 | 2.6 | 659 | 2.1 |
| COc1cc(CN2CCN(C3CC4(C3)CN(c3ccc(C(=O)NS(=O)(=O)c5ccc(NC[C@H]6CC[C@](C)(O)CC6)c([N+](=O)[O-])c5)c(Oc5cnc6[nH]cc(F)c6c5)c3)C4)[C@H](c3ccccc3C(C)C)C2)ccc1N1CCOCC1 [Example 361, 2-((3-fluoro-1H-pyrrolo[2,3-b]pyridin-5-yl)oxy)-N-((4-((((1r,4r)-4-hydroxy-4-methylcyclohexyl)methyl)amino)-3-nitrophenyl)sulfonyl)-4-(6-((R)-2-(2-isopropylphenyl)-4-(3-methoxy-4-morpholinobenzyl)piperazin-1-yl)-2-azaspiro[3.3]heptan-2-yl) benzamide] | 0.13 |  | 3.1 | 0.16 | 273 | 5.1 |  | < 1 |
